Test results: ChEMBL document CHEMBL1201862, “PubChem BioAssay data set” (2004)
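Grown in 96-well plates, cells were treated for 48 hours with each compound at five concentrations. Insufficient inhibition: endpoint recorded as highest concentration tested. GI50 marks 50% less growth.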 Active and inactive are the calls of the source. Rule as the data show it: active = GI50 up to about 1.1 µM and inactive = higher.

Legend:
Assay in all cases: DTP human tumour cell line panel, 48 h
HCT-15 = system: HCT-15
SF-268 = system: SF-268
RXF 393 = system: RXF 393
RPMI-8226 = system: RPMI-8226
HCC 2998 = system: HCC 2998
DU-145 = system: DU-145
NCI-H522 = system: NCI-H522
UACC-257 = system: UACC-257
SNB-75 = system: SNB-75
SF-295 = system: SF-295
NCI-H23 = system: NCI-H23
NCI-H460 = system: NCI-H460
MDA-MB-231 = system: MDA-MB-231
LOX IMVI = system: LOX IMVI
OVCAR-8 = system: OVCAR-8
HOP-92 = system: HOP-92
Hs-578T = system: Hs-578T
CCRF-CEM = system: CCRF-CEM
A498 = system: A498

Structure (SMILES) | GI50 (HCT-15) [µM] | GI50 (SF-268) | GI50 (RXF 393) | GI50 (RPMI-8226) | GI50 (HCC 2998) | GI50 (DU-145) | GI50 (NCI-H522) | GI50 (UACC-257) | GI50 (SNB-75) | GI50 (SF-295) | GI50 (NCI-H23) | GI50 (NCI-H460) | GI50 (MDA-MB-231) | GI50 (LOX IMVI) | GI50 (OVCAR-8) | GI50 (HOP-92) | GI50 (Hs-578T) | GI50 (CCRF-CEM) | GI50 (A498)
COc1ccc(/C(=N/O)c2ccccc2C2=Nc3ccccc3C(NCc3ccccc3)O2)cc1C (stereo not drawn) | 30.3 | 42.3 µM (inactive) | 47.3 µM (inactive) | 26.2 µM (inactive) | 20.9 µM (inactive) | 69.8 µM (inactive) | 34 µM (inactive) | 12.9 µM (inactive) | 24.9 µM (inactive) | 25 µM (inactive) | > 100 µM (inactive) | 29.9 µM (inactive) | 32.7 µM (inactive) | 15.7 µM (inactive) | 27.2 µM (inactive) | 20.5 µM (inactive) | 40.8 µM (inactive) | 19.1 µM (inactive) | 
COC1CC(OC2C(C)OC(OC3C(C)OC(OC4C(C)OC(O[C@H]5CC[C@@]6(C)C(=CC[C@]7(O)[C@@H]6C[C@@H](O)[C@@]6(C)[C@]7(O)CC[C@@]6(O)C(C)=O)C5)CC4OC)CC3OC)CC2OC)OC(C)C1O (stereo partly drawn) | > 12.5 | > 12.5 µM (inactive) |  | > 12.5 µM (inactive) | > 12.5 µM (inactive) | > 12.5 µM (inactive) | > 12.5 µM (inactive) | > 12.5 µM (inactive) | > 12.5 µM (inactive) | > 12.5 µM (inactive) | > 12.5 µM (inactive) |  | > 12.5 µM (inactive) | > 12.5 µM (inactive) | > 12.5 µM (inactive) | > 12.5 µM (inactive) | > 12.5 µM (inactive) | > 12.5 µM (inactive) | 
COc1cc2c(c(OC)c1O)-c1ccc(OC)c(=O)cc1[C@@H](NC(=O)C(F)(F)F)CC2 | 1.16 | 0.173 µM (active) |  | 0.0252 µM (active) | 0.307 µM (active) | 0.361 µM (active) | 0.0235 µM (active) | > 100 µM (inactive) |  | 0.392 µM (active) | 0.0809 µM (active) | 0.207 µM (active) | 0.0413 µM (active) | 0.163 µM (active) | 0.243 µM (active) | 0.111 µM (active) | 0.019 µM (active) | 0.0519 µM (active) | 0.327 µM (active)
Nc1ccc(/N=N/c2c(S(=O)(=O)O)cc3ccccc3c2S(=O)(=O)O)cc1 | > 100 | > 100 µM (inactive) | > 100 µM (inactive) |  | > 100 µM (inactive) | > 100 µM (inactive) | > 100 µM (inactive) | > 100 µM (inactive) | > 100 µM (inactive) | > 100 µM (inactive) | > 100 µM (inactive) | > 100 µM (inactive) | > 100 µM (inactive) | > 100 µM (inactive) | > 100 µM (inactive) | > 100 µM (inactive) | > 100 µM (inactive) | 34.8 µM (inactive) | > 100 µM (inactive)
COC(=O)NC1C(C)OC(OC2C/C=C(/C)C3C=CC4C(OC5CC(OC6CC(OC7CC(O)C(O)C(C)O7)C(OC7CC(O)C(OC)C(C)O7)C(C)O6)C(O)C(C)O5)C(C)CC(C)C4C3(C)C(=O)C3=C(O)C4(CC(C)C(CO)=CC4/C=C\2C)OC3=O)CC1(C)[N+](=O)[O-] (stereo not drawn) | 15.6 | 11.6 µM (inactive) |  | 1.6 µM (inactive) | 3.49 µM (inactive) | 6.73 µM (inactive) | 2.99 µM (inactive) | 9.89 µM (inactive) | 2.47 µM (inactive) | 4.6 µM (inactive) | 12.9 µM (inactive) | 2.06 µM (inactive) | 12 µM (inactive) | 3.23 µM (inactive) | 8.57 µM (inactive) | 6.24 µM (inactive) | 6.85 µM (inactive) | 3.29 µM (inactive) | 25.6 µM (inactive)
CC(C)NC(NC(C)C)=C(S(=O)(=O)C(F)(F)C(F)(F)C(F)(F)C(F)(F)F)S(=O)(=O)C(F)(F)C(F)(F)C(F)(F)C(F)(F)F | > 100 | > 100 µM (inactive) |  | > 100 µM (inactive) | > 100 µM (inactive) | > 100 µM (inactive) | > 100 µM (inactive) | > 100 µM (inactive) | > 100 µM (inactive) | > 100 µM (inactive) | > 100 µM (inactive) | > 100 µM (inactive) | > 100 µM (inactive) | > 100 µM (inactive) | > 100 µM (inactive) | > 100 µM (inactive) | > 100 µM (inactive) | > 100 µM (inactive) | > 100 µM (inactive)
Nc1c2ccccc2nc2ccc3c(=O)cc(-c4ccccc4)oc3c12 | 1.02 | 1.22 µM (inactive) | 1.32 µM (inactive) | 0.473 µM (active) | 0.492 µM (active) | 1.75 µM (inactive) | 1.25 µM (inactive) | 1.75 µM (inactive) | 1.76 µM (inactive) | 0.719 µM (active) | 1.53 µM (inactive) | 0.646 µM (active) | 1.14 µM (inactive) | 0.406 µM (active) | 0.611 µM (active) | 1.24 µM (inactive) | 1.9 µM (inactive) | 0.445 µM (active) | 
c1cc(-c2csc(-c3ccsc3)c2)cs1 | > 100 | > 100 µM (inactive) | > 100 µM (inactive) | > 100 µM (inactive) | 42.5 µM (inactive) | > 100 µM (inactive) |  | > 100 µM (inactive) | > 100 µM (inactive) | > 100 µM (inactive) | > 100 µM (inactive) | > 100 µM (inactive) | > 100 µM (inactive) | > 100 µM (inactive) | > 100 µM (inactive) | > 100 µM (inactive) | > 100 µM (inactive) | > 100 µM (inactive) | > 100 µM (inactive)
Cc1ccn2c(=O)cc(CN3CCOCC3)nc2c1 | > 100 | > 100 µM (inactive) |  | > 100 µM (inactive) | > 100 µM (inactive) | > 100 µM (inactive) | > 100 µM (inactive) | > 100 µM (inactive) | > 100 µM (inactive) | > 100 µM (inactive) | > 100 µM (inactive) | > 100 µM (inactive) | > 100 µM (inactive) | > 100 µM (inactive) | > 100 µM (inactive) | > 100 µM (inactive) | > 100 µM (inactive) | > 100 µM (inactive) | 
COc1ccc(C(=O)O[C@H]2CC[C@@]3(C)[C@@H]4CC[C@H]5[C@]6(O)C[C@H](O)[C@@]7(O)[C@@H](CN8C[C@@H](C)CC[C@H]8[C@@]7(C)O)[C@]6(O)C[C@@]53OC24O)cc1OC [VERATRIDINE] | > 100 | > 100 µM (inactive) | 57.5 µM (inactive) | 80.4 µM (inactive) | 46.1 µM (inactive) | > 100 µM (inactive) | > 100 µM (inactive) | 71.3 µM (inactive) | 23.4 µM (inactive) | > 100 µM (inactive) | > 100 µM (inactive) | 75.2 µM (inactive) | > 100 µM (inactive) | > 100 µM (inactive) | > 100 µM (inactive) | > 100 µM (inactive) | > 100 µM (inactive) |  | > 100 µM (inactive)
COc1c(N2CCCCC2)c2c(=O)c3ccccc3oc2c2cc(C)oc12 | 16.7 | 17.9 µM (inactive) | 15.6 µM (inactive) | 5.94 µM (inactive) | 18.5 µM (inactive) | 17.9 µM (inactive) |  | 33 µM (inactive) | 11.3 µM (inactive) | 18.8 µM (inactive) | 18.5 µM (inactive) | 7.78 µM (inactive) | 5.26 µM (inactive) | 14 µM (inactive) | 16.9 µM (inactive) | 7.45 µM (inactive) | 18.4 µM (inactive) | 8.63 µM (inactive) | 16 µM (inactive)
CC(C)(C)c1cc(C=C(C#N)C#N)cc(C(C)(C)C)c1O [TYRPHOSTIN A9] | 0.366 | 0.344 µM (active) | 2.55 µM (inactive) |  | 0.456 µM (active) | 0.372 µM (active) | 0.126 µM (active) | 0.281 µM (active) | 0.857 µM (active) | 0.455 µM (active) | 0.809 µM (active) | 0.171 µM (active) | 1.56 µM (inactive) | 0.641 µM (active) | 0.303 µM (active) | 0.0527 µM (active) | 0.384 µM (active) | 0.33 µM (active) | 0.277 µM (active)
COc1cc2c(cc1OC)C(=O)N(c1ccc(O)cc1)C2=O | > 100 | > 100 µM (inactive) | > 100 µM (inactive) | > 100 µM (inactive) | > 100 µM (inactive) | > 100 µM (inactive) | > 100 µM (inactive) | > 100 µM (inactive) |  | > 100 µM (inactive) | > 100 µM (inactive) | > 100 µM (inactive) | > 100 µM (inactive) | > 100 µM (inactive) | > 100 µM (inactive) | > 100 µM (inactive) | > 100 µM (inactive) | > 100 µM (inactive) | > 100 µM (inactive)
O=C1C(Sc2ccc3ccccc3c2)=C(Sc2ccc3ccccc3c2)C(=O)c2ccccc21 | 9.06 | 11 µM (inactive) | 14.8 µM (inactive) |  | 5.38 µM (inactive) | 22 µM (inactive) | 1.97 µM (inactive) | 3.57 µM (inactive) | 14 µM (inactive) |  | 5.13 µM (inactive) | 7.82 µM (inactive) | 4.59 µM (inactive) | 11.4 µM (inactive) | 10.5 µM (inactive) | 6.64 µM (inactive) | 8.57 µM (inactive) |  | 14.8 µM (inactive)
CC(=O)OCCOCn1c2c(c(=S)[nH]c1=O)CCC2 | > 100 | > 100 µM (inactive) | > 100 µM (inactive) | > 100 µM (inactive) | > 100 µM (inactive) | > 100 µM (inactive) | > 100 µM (inactive) | > 100 µM (inactive) | > 100 µM (inactive) | > 100 µM (inactive) | > 100 µM (inactive) |  | > 100 µM (inactive) | > 100 µM (inactive) | > 100 µM (inactive) | > 100 µM (inactive) | > 100 µM (inactive) | > 100 µM (inactive) | 
